Assay results as given in PMC7753147, “High-throughput determination of protein affinities using unmodified peptide libraries in nanomolar scale” (iScience, 2020).

Assays:
[1] = system: gephE; assay: µSPOT peptide microarray binding assay with recombinant gephE; details: normalized to most prominent spot, n = 2 array-internal duplicate
[2] = system: native geph; assay: µSPOT peptide microarray binding assay with native geph from mouse brain lysate; details: normalized to most prominent spot, n = 2 array-internal duplicate
[3] = overlapping GABAAR α3 peptide library on µSPOT array, 20 nM gephE
[4] = overlapping GABAAR α3 peptide library on µSPOT array, 6% mouse brain lysate
[5] = overlapping GlyR β peptide library on µSPOT array, 50 nM gephE, anti-gephyrin 3B11/HRP chemiluminescence
[6] = overlapping GlyR β peptide library on µSPOT array, 3% mouse brain lysate

Sequence	gephE Binding Intensity [norm.] [1, 3]	Native geph Binding Intensity [norm.] [2, 4]	gephE Binding Intensity [norm.] [1, 5]	Native geph Binding Intensity [norm.] [2, 6]
YPINLAKDTEFSTISKSAAA [GABAAR α3 residues 402-421, µSpot library]	0.039 norm.	0.114 norm.	–	–
HISTLQVGETRCKKVCTSKS [Glycine receptor subunit beta_016, GlyR β residues 394-413]	–	–	0.042 norm.	0.042 norm.
GTGTPVHISTLQVGETRCKK [Glycine receptor subunit beta_014, GlyR β residues 388-407]	–	–	0.044 norm.	0.068 norm.
TVNGTGTPVHISTLQVGETR [Glycine receptor subunit beta_013]	–	–	0.008 norm.	0.087 norm.
ASPKATYVQDSPAETKTYNS [GABAAR α3 residues 432-451, µSpot library]	0.020 norm.	0.050 norm.	–	–
VGETRCKKVCTSKSDLRSND [Glycine receptor subunit beta_018, GlyR β residues 400-419]	–	–	0.011 norm.	0.074 norm.
TKRSWAWEGKKVPEALEMKK	0.049 norm.	0.033 norm.	–	–
AEQADGKGGNAAKKNTVNGT [Glycine receptor subunit beta_008, GlyR β residues 370-389]	–	–	0.023 norm.	0.065 norm.
PQAKNKKPPPAKPVIPTAAK [Glycine receptor subunit beta_035, GlyR β residues 451-470]	–	–	0.012 norm.	0.087 norm.
LGKPQAKNKKPPPAKPVIPT [Glycine receptor subunit beta_034, GlyR β residues 448-467]	–	–	0.022 norm.	0.061 norm.
NYFTKRSWAWEGKKVPEALE [GABAAR α3 residues 360-379, µSpot library]	0.062 norm.	0.048 norm.	–	–
TTFNIVGTTYPINLAKDTEF [GABAAR α3 residues 393-412, µSpot library]	0.457 norm.	0.538 norm.	–	–
TLQVGETRCKKVCTSKSDLR [Glycine receptor subunit beta_017, GlyR β residues 397-416]	–	–	0.016 norm.	0.054 norm.
APTKKNTTFNIVGTTYPINL [GABAAR α3 residues 387-406, µSpot library]	1.000 norm.	0.767 norm.	–	–
TRCKKVCTSKSDLRSNDFSI [Glycine receptor subunit beta_019, GlyR β residues 403-422]	–	–	0.033 norm.	0.089 norm.
KKVCTSKSDLRSNDFSIVGS [Glycine receptor subunit beta_020, GlyR β residues 406-425]	–	–	0.393 norm.	0.309 norm.
TAIASPKATYVQDSPAETKT [GABAAR α3 residues 429-448, µSpot library]	0.018 norm.	0.060 norm.	–	–

Sequence	gephE Binding Intensity [norm.] [1, 3]	Native geph Binding Intensity [norm.] [2, 4]	gephE Binding Intensity [norm.] [1, 5]	Native geph Binding Intensity [norm.] [2, 6]
GSLPRDFELSNYDCYGKPIE [Glycine receptor subunit beta_026, GlyR β residues 424-443]	–	–	0.132 norm.	0.134 norm.
KSAAAPSASSTPTAIASPKA [GABAAR α3 residues 417-436, µSpot library]	0.030 norm.	0.103 norm.	–	–
STPTAIASPKATYVQDSPAE [GABAAR α3 residues 426-445, µSpot library]	0.019 norm.	0.067 norm.	–	–
ADGKGGNAAKKNTVNGTGTP [Glycine receptor subunit beta_009]	–	–	0.015 norm.	0.067 norm.
KKNTVNGTGTPVHISTLQVG [Glycine receptor subunit beta_012]	–	–	0.023 norm.	0.085 norm.
IEVNNGLGKPQAKNKKPPPA [Glycine receptor subunit beta_032, GlyR β residues 442-461]	–	–	0.009 norm.	0.075 norm.
EAEKARIAKAEQADGKGGNA [Glycine receptor subunit beta_005, GlyR β residues 361-380]	–	–	0.024 norm.	0.113 norm.
KNKKPPPAKPVIPTAAKRID [Glycine receptor subunit beta_036, GlyR β residues 454-473]	–	–	0.016 norm.	0.068 norm.
KARIAKAEQADGKGGNAAKK [Glycine receptor subunit beta_006, GlyR β residues 364-383]	–	–	0.040 norm.	0.091 norm.
KATYVQDSPAETKTYNSVSK [GABAAR α3 residues 435-454, µSpot library]	0.070 norm.	0.059 norm.	–	–
PRDFELSNYDCYGKPIEVNN [Glycine receptor subunit beta_027, GlyR β residues 427-446]	–	–	0.428 norm.	0.521 norm.
SASSTPTAIASPKATYVQDS [GABAAR α3 residues 423-442, µSpot library]	0.022 norm.	0.075 norm.	–	–
WEGKKVPEALEMKKKTPAAP [GABAAR α3 residues 369-388, µSpot library]	0.048 norm.	0.105 norm.	–	–
KRVEAEKARIAKAEQADGKG [Glycine receptor subunit beta_004]	–	–	0.052 norm.	0.117 norm.
KKKTPAAPTKKNTTFNIVGT [GABAAR α3 residues 381-400, µSpot library]	0.053 norm.	0.115 norm.	–	–
LEMKKKTPAAPTKKNTTFNI [GABAAR α3 residues 378-397, µSpot library]	0.059 norm.	0.085 norm.	–	–
